Experimental data as given in patent US10864202B2, “Inhibitors of lysine specific demethylase-1” (CELGENE QUANTICEL RESEARCH, INC., priority 2014, dated 2020).
pIC50: −log10 of the molar value.

Key:
human LSD1 = human LSD1 (Homo sapiens (Human), UniProt O60341); experiment: In vitro enzyme inhibition assay LSD-1 (TR-FRET); type: biochemical; conditions: full-length human LSD1, H3K4me1-biotin peptide
Procedure: This assay determines the ability of a test compound to inhibit LSD1 demethylase activity.
The enzymatic assay of LSD1 activity is based on Time Resolved-Fluorescence Resonance Energy Transfer (TR-FRET) detection.
The ability of the compounds disclosed herein to inhibit LSD1 activity was quantified and the respective IC50 value was determined.

THP-1 (AML) cells = experiment: LSD1 CD11b cellular assay (flow cytometry); type: cell-based; conditions: Homo sapiens, 96 h; CD11b expression in THP-1 cells, 4 days incubation
Procedure: To analyze LSD1 inhibitor efficacy in cells, a CD11b flow cytometry assay was performed. LSD1 inhibition induces CD11b expression in THP-1 (AML) cells which can be measured by flow cytometry. […] LSD1 test compounds were serially diluted in DMSO. The dilutions were added to each well accordingly to a final concentration of 0.2% DMSO. The cells were incubated at 37 degrees Celsius in 5% CO2 for 4 days. 250 μL of each well was transferred to a well in a 96 well round bottom plate. The plate was centrifuged at 1200 rpm at 4 degrees Celsius in a Beckman Coulter Alegra 6KR centrifuge for 5 minutes. The media was removed leaving the cells at the bottom of the wells. The cells were washed in 100 μL cold HBSS (Hank's Balanced Salt Solution) plus 2% BSA (Bovine Serum Albumin) solution and centrifuged at 1200 rpm at 4 degrees Celsius for 5 minutes. The wash was removed. […] The cells were centrifuged and washed two times in 100 μl HBSS plus 2% BSA. After the final spin the cells were resuspended in 100 μL HBSS plus 2% BSA containing 1 ug/mL DAPI (4′,6-diamidino-2-phenylindole). The cells were then analyzed by flow cytometry in a BD FACSAria machine. Cells were analyzed for CD11b expression. The percent of CD11b expressing cells for each inhibitor concentration was used to determine an IC50 curve for each compound analyzed.

SMILES	pIC50 (human LSD1)	pIC50 (THP-1 (AML) cells)
N#Cc1ccc(-c2cc3c(ccn3C[C@@H]3CCNC3)nc2N2CCOCC2)cc1 [Example 6]	6.00 to 7.00	
Cc1ccc(-c2cnc(N3CC4CNCC(C3)O4)nc2-c2ccc(C#N)cc2)cc1 [Example 41, 4-[5-(4-methylphenyl)-2-{9-oxa-3,7-diazabicyclo[3.3.1]nonan-3-yl}pyrimidin4-yl]benzonitrile]	6.00 to 7.00	
Cc1ccc(-c2cnc(N[C@@H]3C[C@H]4CNC[C@H]4C3)nc2-c2ccc(C#N)cc2)cc1 [Example 27]	6.00 to 7.00	
N#Cc1ccc(-c2cc3c(ccn3CC3(F)CCNC3)nc2N2CCOCC2)cc1 (stereo not shown) [Example 8, 4-[1-[(3-fluoropyrrolidin-3-yl)methyl]-5-morpholin-4-ylpyrrolo[3,2-b]pyridin-6-yl]benzonitrile]	6.00 to 7.00	
N#Cc1ccc(-c2nc(N3CC4CNCC(C3)O4)ncc2-c2ccc(F)cc2)cc1 [Example 42, 4-[5-(4-fluorophenyl)-2-{9-oxa-3,7-diazabicyclo[3.3.1]nonan-3-yl}pyrimidin-4-yl]benzonitrile]	6.00 to 7.00	

Second part, the compound after the results:

pIC50 (human LSD1)	pIC50 (THP-1 (AML) cells)	SMILES
6.00 to 7.00		N#Cc1ccc(-c2cc3c(ccn3C[C@H]3CCNC3)nc2Cl)cc1 [Example 4]
> 7.00		Cc1ccc(-c2cnc(NCC3CNCCO3)nc2-c2ccc(C#N)cc2)cc1 (racemic) [Example 33, (±)-4-[5-(4-methylphenyl)-2-[(morpholin-2-ylmethyl)amino]pyrimidin-4-yl]benzonitrile]
	6.00 to 7.00	N#Cc1ccc(-c2nc(NCC3CCNC3)ncc2C#CC2CC2)cc1 (stereo not shown) [Example 26]
> 7.00		Cc1ccc(-c2cnc(NCC3CCCNC3)nc2-c2ccc(C#N)cc2)cc1 (racemic) [Example 31, (±)-4-5-(4-methylphenyl)-2-[(piperidin-3-ylmethyl)amino]pyrimidin-4-yl]benzonitrile]
6.00 to 7.00		N#Cc1ccc(-c2nc(NC[C@H]3CCNC3)ncc2Cl)cc1 [Example 17, 4-(5-chloro-2-{[(3S)-pyrrolidin-3-ylmethyl]amino}pyrimidin-4-yl)benzonitrile]
